What was measured:
[1] = xn = mol fraction of the nth substance listed; conditions: 101 kPa, Liquid
[2] = 101 kPa, Liquid

CCOC(C)(C)C [2-ethoxy-2-methylpropane] + CCOCCO
viscosity [mPa·s], [1]
Conditions | 293.15 K | 298.15 K | 303.15 K
x1 = 0.05 | 1.943 | 1.691 | 1.515
x1 = 0.1001 | 1.766 | 1.547 | 1.394
x1 = 0.1489 | 1.619 | 1.424 | 1.286
x1 = 0.2002 | 1.476 | 1.306 | 1.184
x1 = 0.2511 | 1.35 | 1.203 | 1.094
x1 = 0.2999 | 1.242 | 1.113 | 1.017
x1 = 0.3486 | 1.146 | 1.031 | 0.947
x1 = 0.4 | 1.057 | 0.955 | 0.879
x1 = 0.4511 | 0.977 | 0.887 | 0.82
x1 = 0.5 | 0.908 | 0.829 | 0.769
x1 = 0.5502 | 0.845 | 0.775 | 0.721
x1 = 0.5999 | 0.791 | 0.729 | 0.679
x1 = 0.652 | 0.74 | 0.685 | 0.64
x1 = 0.6999 | 0.699 | 0.649 | 0.608
x1 = 0.7499 | 0.66 | 0.616 | 0.578
x1 = 0.8 | 0.626 | 0.586 | 0.552
x1 = 0.8505 | 0.597 | 0.56 | 0.528
x1 = 0.9 | 0.571 | 0.538 | 0.508
x1 = 0.9499 | 0.549 | 0.519 | 0.492
x1 = 1 | 0.532 | 0.504 | 0.478

CCOC(C)(C)C [2-ethoxy-2-methylpropane] + CCOCCOCCOCCO
[1], x1 = 1
Conditions | viscosity [mPa·s]
293.15 K | 0.532
298.15 K | 0.504
303.15 K | 0.478

CCOCCOCCO [3,6-dioxa-1-octanol] + CCOC(C)(C)C
viscosity [mPa·s], [1]
Conditions | 293.15 K | 298.15 K | 303.15 K
x2 = 0 | 4.464 | 3.976 | 3.531
x2 = 0.05 | 3.992 | 3.574 | 3.192
x2 = 0.1 | 3.505 | 3.156 | 2.836
x2 = 0.1501 | 3.037 | 2.746 | 2.49
x2 = 0.2 | 2.637 | 2.398 | 2.183
x2 = 0.2498 | 2.289 | 2.093 | 1.912
x2 = 0.2999 | 1.991 | 1.828 | 1.683
x2 = 0.3497 | 1.744 | 1.605 | 1.48
x2 = 0.3999 | 1.526 | 1.413 | 1.312
x2 = 0.4502 | 1.343 | 1.245 | 1.16
x2 = 0.5002 | 1.184 | 1.103 | 1.03
x2 = 0.55 | 1.049 | 0.979 | 0.918
x2 = 0.5997 | 0.932 | 0.872 | 0.82
x2 = 0.6504 | 0.832 | 0.78 | 0.736
x2 = 0.7003 | 0.749 | 0.704 | 0.667
x2 = 0.7503 | 0.682 | 0.643 | 0.611
x2 = 0.7998 | 0.63 | 0.596 | 0.568
x2 = 0.8498 | 0.591 | 0.562 | 0.536
x2 = 0.9 | 0.563 | 0.536 | 0.512
x2 = 0.95 | 0.545 | 0.519 | 0.495

CCOC(C)(C)C [2-ethoxy-2-methylpropane]
[2]
Conditions | viscosity [mPa·s]
293.15 K | 0.532
298.15 K | 0.504
303.15 K | 0.478

CCOCCOCCOCCO [2-(2-(2-ethoxyethoxy)ethoxy)ethanol] + CCOC(C)(C)C
viscosity [mPa·s], [1]
Conditions | 293.15 K | 298.15 K | 303.15 K
x2 = 0 | 8.087 | 7.049 | 6.421
x2 = 0.0501 | 6.804 | 5.991 | 5.485
x2 = 0.0996 | 5.742 | 5.091 | 4.685
x2 = 0.1502 | 4.816 | 4.304 | 3.982
x2 = 0.1999 | 4.042 | 3.643 | 3.389
x2 = 0.2502 | 3.391 | 3.076 | 2.874
x2 = 0.3005 | 2.841 | 2.597 | 2.437
x2 = 0.3506 | 2.383 | 2.195 | 2.067
x2 = 0.4 | 2.008 | 1.863 | 1.759
x2 = 0.4502 | 1.692 | 1.582 | 1.495
x2 = 0.5 | 1.435 | 1.351 | 1.278
x2 = 0.55 | 1.225 | 1.16 | 1.096
x2 = 0.5955 | 1.067 | 1.013 | 0.959
x2 = 0.6498 | 0.915 | 0.873 | 0.824
x2 = 0.7 | 0.804 | 0.77 | 0.727
x2 = 0.7502 | 0.714 | 0.689 | 0.654
x2 = 0.7982 | 0.647 | 0.628 | 0.598
x2 = 0.8491 | 0.593 | 0.581 | 0.555
x2 = 0.9 | 0.555 | 0.549 | 0.524
x2 = 0.95 | 0.533 | 0.528 | 0.502

CCOC(C)(C)C [2-ethoxy-2-methylpropane] + CCOCCOCCO
[1], x1 = 1
Conditions | viscosity [mPa·s]
293.15 K | 0.532
298.15 K | 0.504
303.15 K | 0.478

CCOCCO [2-ethoxyethan-1-ol] + CCOC(C)(C)C
[1], x2 = 0
Conditions | viscosity [mPa·s]
293.15 K | 2.142
298.15 K | 1.848
303.15 K | 1.646

CCOCCO [2-ethoxyethan-1-ol]
[2]
Conditions | viscosity [mPa·s]
293.15 K | 2.142
298.15 K | 1.848
303.15 K | 1.646

CCOCCOCCO [3,6-dioxa-1-octanol]
[2]
Conditions | viscosity [mPa·s]
293.15 K | 4.464
298.15 K | 3.976
303.15 K | 3.531

CCOCCOCCOCCO [2-(2-(2-ethoxyethoxy)ethoxy)ethanol]
[2]
Conditions | viscosity [mPa·s]
293.15 K | 8.087
298.15 K | 7.049
303.15 K | 6.421
